Publication PMC3430861, “The pharmacological profile of ELIC, a prokaryotic GABA-gated receptor” (Neuropharmacology, 2012)
Read-outs that look alike come from different tables or passages of the source.

What was measured:
ELIC [1] = target: T1, ELIC (Dickeya chrysanthemi, UniProt P0C7B7); test: cell-based; type: cell-based, Erwinia chrysanthemi
T1 sequence (P0C7B7 8-321): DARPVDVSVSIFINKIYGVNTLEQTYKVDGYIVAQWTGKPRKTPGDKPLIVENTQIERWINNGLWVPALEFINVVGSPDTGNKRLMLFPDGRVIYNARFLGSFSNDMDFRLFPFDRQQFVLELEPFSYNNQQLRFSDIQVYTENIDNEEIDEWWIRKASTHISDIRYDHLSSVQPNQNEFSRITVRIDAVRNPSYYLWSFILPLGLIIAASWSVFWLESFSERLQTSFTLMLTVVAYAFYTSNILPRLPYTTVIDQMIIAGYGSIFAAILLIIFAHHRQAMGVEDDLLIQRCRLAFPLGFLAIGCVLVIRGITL
Description: Xenopus laevis oocyte-positive females were purchased from NASCO (Fort Atkinson, Wisconsin, USA) and maintained according to standard methods. Harvested stage V–VI Xenopus oocytes were washed in four changes of ND96 (96 mM NaCl, 2 mM KCl, 1 mM MgCl2, 5 mM HEPES, pH 7.5), de-folliculated in 1.5 mg ml^−1 collagenase Type 1A for approximately 2 h, washed again in four changes of ND96 and stored in ND96 containing 2.5 mM sodium pyruvate, […], 0.7 mM theophylline.
(§1) The ELIC sequence (Genbank accession number POC7B7) was purchased from Genscript as a synthetic gene with optimized codon usage for expression in Escherichia coli. […] Stage V and VI oocytes were injected with 20 ng cRNA, and currents recorded 1–3 days post-injection.

ELIC [2] = target: T2, ELIC (Dickeya chrysanthemi, UniProt P0C7B7, INS163G); test: cell-based; type: cell-based, Erwinia chrysanthemi; conditions: for EC50: read-out: pEC50 (EC50): agonist effect at the concentration shown (converted)
T2 construct: expressed in transfected cells; host or cells: Xenopus laevis oocytes injected with cRNA
Description: Xenopus laevis oocyte-positive females were purchased from NASCO (Fort Atkinson, Wisconsin, USA) and maintained according to standard methods.
as §1

GLIC = test system: GLIC; design: method as in Alqazzaz et al., 2011; conditions: comparison ELIC vs GLIC; ref Alqazzaz et al., 2011; cited from earlier work
ELIC [3] = target: T1, ELIC; test: Inhibition of cysteamine-induced ELIC responses; type: cell-based, Erwinia chrysanthemi; conditions: data not shown
[4] = target: RDL, a GABA-activated insect receptor; design: method as in McGonigle and Lummis, 2010; conditions: RDL; ref McGonigle and Lummis, 2010; cited from earlier work
[5] = Hill coefficient of inhibition curve
[6] = IC50, wild type ELIC, at the GABA EC50 (1.6 mM)
[7] = pIC50 (Mean ± SEM), wild type ELIC, at the GABA EC50 (1.6 mM)

## CC(=O)O[C@H]1C[C@@H]2CC[C@@H]3[C@H](CC[C@@]4(C)[C@H]3C[C@H]([N+]3(C)CCCCC3)[C@@H]4OC(C)=O)[C@@]2(C)C[C@@H]1[N+]1(C)CCCCC1 [Pancuronium]
ELIC [1]
  pIC50: no inhibition: NI (key: NI: no inhibition at 10 mM; NI*: no inhibition at 100 μM)

## N[C@@H](Cc1ccc(O)cc1)C(=O)O [Tyrosine]
ELIC [2]; 1 mM
  effect on ELIC (agonist test): no effect
ELIC [1]
  effect when co-applied in the presence of GABA: no effect

## CC[N+](CC)(CC)CC [tetraethylammonium]
ELIC [1]; read-out: IC50
  IC50: ~20000 µM

## C=C(C)[C@@H]1[C@H]2OC(=O)[C@@H]1[C@]1(O)C[C@H]3O[C@]34C(=O)O[C@H]2[C@]14C [Picrotoxinin]
GLIC
  inhibition of GLIC (yes/no): inhibiting both receptors
ELIC [1]; [5]
  nH: 1.2 ± 0.6
ELIC [1]; [6]
  IC50: 96 µM
ELIC [1]; comparison ELIC vs GLIC
  inhibition of ELIC (yes/no): inhibiting both receptors
ELIC [1]; [7]
  IC50: 87.1 µM
ELIC [3]
  inhibition of cysteamine-induced responses compared to inhibition of GABA-induced responses: no significant differences

## N[C@@H](Cc1ccccc1)C(=O)O [Phenylalanine]
ELIC [2]; 1 mM
  effect on ELIC (agonist test): no effect

## NCCCP(=O)(O)O [3-aminophosphonic acid]
ELIC [2]; 100 mM
  effect on ELIC (agonist test): no effect
  EC50: > 10000 µM

## NCCCCC(=O)O [5-aminovaleric acid]
[4]
  EC50: 1100 µM
  Rmax: 0.85
ELIC [2]
  concentration required to activate ELIC: > 10 mM

## Cc1cccc(C)c1N=C([O-])C[N+](C)(C)C.Cl [QX-222]
ELIC [1]
  inhibition of ELIC (yes/no): inhibiting neither
  pIC50: no inhibition: NI (key: NI: no inhibition at 10 mM; NI*: no inhibition at 100 μM)

## NCC(=O)O [Glycine]
ELIC [2]; 1 mM
  EC50: > 10000 µM
ELIC [2]; 10 mM
  effect on ELIC (agonist test): no ELIC responses
  EC50: > 10000 µM

## C[C@@H](O)[C@H](N)C(=O)O [Threonine]
ELIC [2]; 1 mM
  effect on ELIC (agonist test): no effect

## CC(=O)OCC[N+](C)(C)C [ACh]
ELIC [2]; 1 mM
  EC50: > 10000 µM
ELIC [2]; 10 mM
  effect on ELIC (agonist test): no ELIC responses

## O=C(O)Cc1c[nH]c2ccccc12 [3-indole acetic acid]
ELIC [2]; 10 mM
  effect on ELIC (agonist test): no effect
  EC50: > 10000 µM

## N[C@@H](CO)C(=O)O [Serine]
ELIC [2]; 1 mM
  effect on ELIC (agonist test): no effect

## CSCC[C@H](N)C(=O)O [Methionine]
ELIC [2]; 1 mM
  effect on ELIC (agonist test): no effect

## NC12CC3CC(CC(C3)C1)C2 [Amantadine]
GLIC
  inhibition of GLIC (yes/no): inhibiting both receptors
ELIC [1]
  inhibition of ELIC (yes/no): inhibiting both receptors
ELIC [1]; [5]
  nH: 2.5 ± 0.4
ELIC [1]; IC50
  IC50: 370 µM
ELIC [1]; pIC50 (Mean ± SEM)
  IC50: 372 µM

## CCC(N)C(=O)O (stereo not drawn) [α-aminobutyrate]
ELIC [2]; 10 mM
  effect on ELIC (agonist test): did not activate ELIC
  EC50: > 10000 µM

## Ivermectin
ELIC [1]
  inhibition of ELIC (yes/no): inhibiting neither
  pIC50: no inhibition: NI (key: NI: no inhibition at 10 mM; NI*: no inhibition at 100 μM)

## O=C(O)CCC(=O)C(=O)O [α-ketoglutarate]
ELIC [2]; 10 mM
  effect on ELIC (agonist test): did not activate ELIC
  EC50: > 10000 µM

## Oc1ccc2[nH]ccc2c1 [5-hydroxyindole]
ELIC [1]
  inhibition of ELIC (yes/no): inhibiting neither

## O=[N+]([O-])NC1=NCCN1Cc1ccc(Cl)nc1 [Imidaclopride]
ELIC [1]
  inhibition of ELIC (yes/no): inhibiting neither

## NCCC(=O)O [β-alanine]
ELIC [2]; 10 mM
  effect on ELIC (agonist test): no effect

## C[C@H](N)C(=O)O [Alanine]
ELIC [2]; 1 mM
  effect on ELIC (agonist test): no effect

## CC(C)(C)[C@]1(O)CC2OC(=O)CC23C(=O)OC2OC(=O)[C@H](O)C231 (some centres unmarked) [Bilobalide]
ELIC [1]; [5]
  nH: 1.3 ± 0.2
ELIC [1]; [6]
  IC50: 330 µM
ELIC [1]; [7]
  IC50: 331 µM

## O=C(O)[C@@H]1CCC(O)=N1 [pyroglutamate]
ELIC [2]; 10 mM
  effect on ELIC (agonist test): did not activate ELIC

## NCc1cc(=O)[nH]o1 [muscimol]
ELIC [2]; 30 μM
  effect on ELIC (agonist test): no effect

## N[C@@H](Cc1c[nH]cn1)C(=O)O [Histidine]
ELIC [2]; 1 mM
  effect on ELIC (agonist test): no effect
ELIC [1]
  effect when co-applied in the presence of GABA: no effect

## ClC1=C(Cl)[C@]2(Cl)[C@@H]3[C@@H]4C[C@@H]([C@H]5O[C@@H]45)[C@@H]3[C@@]1(Cl)C2(Cl)Cl [Dieldrin]
ELIC [1]
  nH: 1.1 ± 0.1
ELIC [1]; IC50
  IC50: 66 µM
ELIC [1]; pIC50 (Mean ± SEM)
  IC50: 66.1 µM
